Here are results for 21 compounds from patent US20250320228A1, “PYRIDO[3,2-D]PYRIMIDINES AS HPK1 INHIBITORS” (Merck Patent GmbH, priority 2022, published 2025).

What is called IC50 is the concentration needed to halve the response being measured.

Experiment [1] concerns HPK1 pSLP76 (Ser376). Put plainly: Cellular assay phospho-SLP-76 (Ser376). The class given is cell-based, human. As to conditions: read-out: HPK1 pSLP76 IC50. Here is the method: Cellular Assay—Phospho-SLP-76 (Ser376).
Inhibition of HPK1 enzymatic activity in cells was determined by detection of SLP76 phosphorylation at Ser376 residue in lysate from Jurkat (human) and EL-4 (mouse) cells. Jurkat and EL-4 cells express both HPK1 and SLP76 naturally. All cells were cultured in RPMI 1640 media containing 10% heat inactivated fetal bovine serum (FBS) and 1× Penicillin-Streptomycin. In either Jurkat or El-4 assay, cells were pre-incubated with test compounds prior to T cell stimulation by respective αCD3/αCD28 Dynabeads™. For detection, plates were read on the Envision and percent inhibition and IC50 were determined by Smart fit in Genedata Analyzer.
For Jurkat cells: 35 μL cell suspension were dispensed at a density of 30,000 cells/well in 384-well plates containing HBSS (Gibco, 14025076)+0.1% BSA). 10-point logarithmic serial dilution of test compounds in DMSO were prepared by a Hamilton automated liquid handling robot and 35 nL was transferred into each well by an Echo liquid handler. After 60 min. pre-incubation, the cells were stimulated by adding 5 μL human T activator αCD3/αCD28 Dynabeads™ (Gibco, 11132D) at 1.2×107 beads/ml for 15 minutes at 37° C. Detection of Ser376 phosphorylation status was accomplished by first adding 10 μL of 5× AlphaLISA lysis buffer (Perkin Elmer, ALSU-PSLP-A500) to each well of the cell plate using a Multidrop Combi (5840300), followed by 20 minutes shaking. 10 μL cell lysate from each treatment were then transferred to a white 384-well plate (Corning 3572) and incubated with AlphaLISA acceptor beads for one hour (AlphaLISA SureFire Ultra p-SLP76 (Ser376), Perkin Elmer, ALSU-PSLP-A500), and donor beads for additional 2 hours at room temperature in the dark. […]

Experiment [2] deals with full-length human HPK1 (MAP4K1) (Homo sapiens (Human), UniProt Q92918). Put plainly: HPK1 kinase assay (biochemical, ADP-Glo). As to conditions: read-out: HPK1 enzymatic IC50. From the text: HPK1 kinase assay (Biochemical assay).
A recombinant fusion protein consisting of full-length human HPK1 (MAP4K1) with an N-terminal Glutatione S-transferase (GST) tag was produced in insect cells Sf21 using the baculovirus expression system. GST-HPK1 protein was purified from cell lysates by glutathione Sepharose affinity chromatography. The assay is run in three continuous steps: 1) the HPK1 enzymatic kinase reaction, 2) an ATP depletion, and 3) the ADP detection, the steps 2 and 3 are performed with ADP-Glo™ Kinase Assay kit from Promega (V9101). Test compounds were prepared by 10-point serial dilution in dimethyl sulfoxide (DMSO) and 100 nL of each dilution was spotted onto a 384-well Optiplate (Perkin Elmer and Cat #6007299) by Labcyte Echo. 5 μL kinase reaction buffer (0.02% Brij-35, 2 mM DTT, 50 mM HEPES pH 7.5, MgCl2 10 mM, BSA 0.01% and β-glycerophosphate 12.5 mM) containing HPK1 (3.2 nM) enzyme was transferred to each well and incubated for 15 minutes at room temperature at 60% humidity. The enzymatic reaction was started by adding 5 μl of Start-Mix (10 μM ATP and 3.235 μM MBP). After 120 minutes, the reaction was stopped by adding 5 μL of ADP-Glo reagent (Promega, V9101) and incubating for 40 min. in the dark at 23° C. To determine the level of ADP, 10 μl ADP-Glo Detection solution was added and incubated for 1 hour at 23° C. in the dark. The plate was transferred to a Perkin Elmer EnVision (2104 Multilabel Reader) for luminescence detection and percent inhibition activity and IC50 value were determined using Genedata Screener.
On the technique in general: ADP-Glo turns the ADP formed in a reaction into a luminescent signal.

Where [3] appears, read: SLP76 Ser376 phosphorylation after αCD3/αCD28 stimulation, Jurkat (human) or EL-4 (mouse) cells, table does not say which.
The mark [4] stands for this setting: GST-HPK1 3.2 nM, 10 μM ATP, MBP substrate, ADP-Glo.

Structures can show the parent of a compound that is named as a salt. Where two headings read alike, the source gives them in different places.

full-length human HPK1 (MAP4K1), sequence (Q92918 whole entry, the tested form may be a part): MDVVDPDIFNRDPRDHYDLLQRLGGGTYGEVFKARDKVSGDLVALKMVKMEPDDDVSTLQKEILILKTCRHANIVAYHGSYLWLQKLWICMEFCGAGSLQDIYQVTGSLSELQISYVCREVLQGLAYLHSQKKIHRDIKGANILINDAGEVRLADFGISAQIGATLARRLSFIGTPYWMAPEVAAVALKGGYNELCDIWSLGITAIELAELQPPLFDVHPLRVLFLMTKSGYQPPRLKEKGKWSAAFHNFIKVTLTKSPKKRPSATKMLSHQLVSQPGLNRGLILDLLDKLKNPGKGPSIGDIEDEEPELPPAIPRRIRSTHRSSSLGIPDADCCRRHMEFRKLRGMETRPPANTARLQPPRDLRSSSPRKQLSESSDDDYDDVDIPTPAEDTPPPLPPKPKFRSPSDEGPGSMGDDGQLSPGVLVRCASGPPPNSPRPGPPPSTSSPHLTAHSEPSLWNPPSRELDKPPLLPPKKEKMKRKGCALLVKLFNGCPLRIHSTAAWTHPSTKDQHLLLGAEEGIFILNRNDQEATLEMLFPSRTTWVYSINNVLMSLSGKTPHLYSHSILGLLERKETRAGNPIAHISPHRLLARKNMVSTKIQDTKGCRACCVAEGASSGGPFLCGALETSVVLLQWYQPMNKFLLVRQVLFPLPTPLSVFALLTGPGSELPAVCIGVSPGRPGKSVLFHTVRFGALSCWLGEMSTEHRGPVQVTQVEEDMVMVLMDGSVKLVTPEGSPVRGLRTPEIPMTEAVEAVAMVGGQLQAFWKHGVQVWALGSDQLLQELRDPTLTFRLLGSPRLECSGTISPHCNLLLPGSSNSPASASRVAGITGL

Regarding `NC(=O)c1cc(-c2ccc(OCCCN3CCOCC3)cc2)nc2c(N[C@H]3CCCNC3)ncnc12` [Example 52, (S)-6-(4-(3-morpholinopropoxy)phenyl)-4-(piperidin-3-ylamino)pyrido[3,2-d]pyrimidine-8-carboxamide], the IC50 in experiment [1] (setting [3]) is below 500 nM; in experiment [2] (setting [4]), below 100 nM.
In the same order, the values of `NC(=O)c1cc(-c2cnn(C3CC3)c2)nc2c(N[C@@H]3CNC[C@@H](F)C3)ncnc12` [Example 36, 6-(1-cyclopropyl-1H-pyrazol-4-yl)-4-(((3S,5S)-5-fluoropiperidin-3-yl)amino)pyrido[3,2-d]pyrimidine-8-carboxamide] are 500 to 1000 nM and below 100 nM.
In the same order, the values of `CS(=O)(=O)Cc1ccc(-c2cc(C(N)=O)c3ncnc(N[C@H]4CCCNC4)c3n2)cc1` [Example 54, (S)-6-(4-((methylsulfonyl)methyl)phenyl)-4-(piperidin-3-ylamino)pyrido[3,2-d]pyrimidine-8-carboxamide] are above 1000 nM and below 100 nM.
On to `NC(=O)c1cc(-c2ccc(OCC3(O)CC3)cc2)nc2c(N[C@@H]3CNC[C@@H](F)C3)ncnc12` [Example 34, 4-(((3S,5S)-5-fluoropiperidin-3-yl)amino)-6-(4-((1-hydroxycyclopropyl)methoxy)phenyl)pyrido[3,2-d]pyrimidine-8-carboxamide], for which the IC50 in experiment [1] (Homo sapiens, Jurkat) is below 500 nM; in experiment [2], below 100 nM.
`C[C@@H](c1ccc(-c2cc(C(N)=O)c3ncnc(N[C@H]4CCCNC4)c3n2)cc1)N1CCOCC1` (single isomer, unassigned) [Example 53]: the results for the IC50 in experiment [1] (setting [3]) and in experiment [2] (setting [4]) were 500 to 1000 nM and below 100 nM, respectively.
In the same order, the values of `COCCOc1ccc(-c2cc(C(N)=O)c3ncnc(N[C@H]4CNCC[C@@H]4F)c3n2)cc1` [Example 49, 4-(((3S,4S)-4-fluoropiperidin-3-yl)amino)-6-(4-(2-methoxyethoxy)phenyl)pyrido[3,2-d]pyrimidine-8-carboxamide] are above 1000 nM and above 1000 nM.
The like results for `CC1(N2CCOCC2)CC=C(c2cc(C(N)=O)c3ncnc(N[C@H]4CCCNC4)c3n2)CC1` (stereo partly drawn) [Example 74, 6-[4-methyl-4-(morpholin-4-yl)cyclohex-1-en-1-yl]-4-{[(3S)-piperidin-3-yl]amino}pyrido[3,2-d]pyrimidine-8-carboxamide] were, in that order, above 1000 nM and below 100 nM.
In the same order, the values of `CC(C)(O)COc1ccc(-c2cc(C(N)=O)c3ncnc(N[C@@H]4CNCC[C@@H]4F)c3n2)cc1` [Example 38, 4-(((3R,4S)-4-fluoropiperidin-3-yl)amino)-6-(4-(2-hydroxy-2-methylpropoxy)phenyl)pyrido[3,2-d]pyrimidine-8-carboxamide] are below 500 nM and below 100 nM.
With `CC(C)(O)COc1ccc(-c2cc(C(N)=O)c3ncnc(N[C@@H]4CNC[C@@H](F)C4)c3n2)c(C#N)c1` [Example 1, 6-(2-cyano-4-(2-hydroxy-2-methylpropoxy)phenyl)-4-(((3S,5S)-5-fluoropiperidin-3-yl)amino)pyrido[3,2-d]pyrimidine-8-carboxamide], the figures for the IC50 in experiment [1] (setting [3]) and in experiment [2] (setting [4]) were below 500 nM and below 100 nM, respectively.
In the same order, the values of `NC(=O)c1cc(-c2ccc(CN3C4CCC3COC4)cc2)nc2c(N[C@H]3CCCNC3)ncnc12` [Example 66, 6-(4-[3-oxa-8-azabicyclo [3.2.1]octan-8-ylmethyl]phenyl)-4-[(3S)-piperidin-3-ylamino]pyrido[3,2-d]pyrimidine-8-carboxamide] are below 500 nM and below 100 nM.
Turning to `COCCOc1ccc(-c2cc(C(N)=O)c3ncnc(N[C@H]4CCCNC4)c3n2)cn1` [Example 55, (S)-6-(6-(2-methoxyethoxy)pyridin-3-yl)-4-(piperidin-3-ylamino)pyrido[3,2-d]pyrimidine-8-carboxamide], the IC50 in experiment [1] (setting [3]) is above 1000 nM; in experiment [2] (setting [4]) it was below 100 nM.
`CC(C)(O)COc1ccc(-c2cc(C(N)=O)c3ncnc(N[C@H]4CCCNC4)c3n2)cc1` [Example 62, 6-[4-(2-hydroxy-2-methylpropoxy)phenyl]-4-[(3S)-piperidin-3-ylamino]pyrido[3,2-d]pyrimidine-8-carboxamide]: the IC50 in experiment [1] (setting [3]) was below 500 nM; in experiment [2] (setting [4]), below 100 nM.
The like results for `NC(=O)c1cc(-c2cc(F)c(OCC3(O)CCOCC3)c(F)c2)nc2c(N[C@H]3CCCNC3)ncnc12` [Example 43, (S)-6-(3,5-difluoro-4-((4-hydroxytetrahydro-2H-pyran-4-yl)methoxy)phenyl)-4-(piperidin-3-ylamino)pyrido[3,2-d]pyrimidine-8-carboxamide] were, in that order, below 500 nM and below 100 nM.
Turning to `NC(=O)c1cc(-c2ccc(CN3CCOCC3)cc2)nc2c(N[C@@]3(c4ccccc4)CCCNC3)ncnc12` [Example 18], the concentration for half-maximal inhibition (IC50) in experiment [1] (setting [3]) was above 1000 nM; in experiment [2] (setting [4]) it was 100 to 1000 nM.
Regarding `NC(=O)c1cc(-c2ccc(O[C@H]3CN4CCC3CC4)cc2)nc2c(N[C@H]3CCCNC3)ncnc12` [Example 50, 4-(((S)-piperidin-3-yl)amino)-6-(4-(((R)-quinuclidin-3-yl)oxy)phenyl)pyrido[3,2-d]pyrimidine-8-carboxamide], the IC50 in experiment [1] (Homo sapiens, Jurkat) is above 1000 nM; in experiment [2], below 100 nM.
On to `NC(=O)c1cc(-c2ccc(OC(F)(F)F)cc2)nc2c(N[C@H]3CCCNC3)ncnc12` [Example 31, 4-[(3S)-piperidin-3-ylamino]-6-[4-(trifluoromethoxy)phenyl]pyrido[3,2-d]pyrimidine-8-carboxamide], for which the IC50 in experiment [1] (setting [3]) was 500 to 1000 nM; in experiment [2] (setting [4]), below 100 nM.
In the case of `C[C@@H]1CN(Cc2ccc(-c3cc(C(N)=O)c4ncnc(N[C@H]5CCCNC5)c4n3)cc2)CCO1` [Example 69, 6-(4-[[(2R)-2-methylmorpholin-4-yl]methyl]phenyl)-4-[(3S)-piperidin-3-ylamino]pyrido[3,2-d]pyrimidine-8-carboxamide dihydrochloride], the IC50 in experiment [1] (setting [3]) was above 1000 nM; in experiment [2] (setting [4]), below 100 nM.
On to `NC(=O)c1cc(-c2cnn(C3CCOCC3)c2)nc2c(N[C@@H]3CNC[C@@H](F)C3)ncnc12` [Example 4, 4-(((3S,5S)-5-fluoropiperidin-3-yl)amino)-6-(1-(tetrahydro-2H-pyran-4-yl)-1H-pyrazol-4-yl)pyrido[3,2-d]pyrimidine-8-carboxamide], for which the IC50 in experiment [1] (setting [3]) is 500 to 1000 nM; in experiment [2] (setting [4]), below 100 nM.
For the compound `CCn1cc(-c2cc(C(N)=O)c3ncnc(N[C@@H]4CNC[C@@H](F)C4)c3n2)c(C)n1` [Example 9, 6-(1-ethyl-3-methyl-1H-pyrazol-4-yl)-4-(((3S,5S)-5-fluoropiperidin-3-yl)amino)pyrido[3,2-d]pyrimidine-8-carboxamide], the IC50 in experiment [1] (setting [3]) is below 500 nM; in experiment [2] (setting [4]), below 100 nM.
The like results for `NC(=O)c1cc(-c2ccc(OCC3(O)CCCC3)cc2)nc2c(N[C@H]3CCCNC3)ncnc12` [Example 41, (S)-6-(4-((1-hydroxycyclopentyl)methoxy)phenyl)-4-(piperidin-3-ylamino)pyrido[3,2-d]pyrimidine-8-carboxamide] were, in that order, below 500 nM and below 100 nM.
In the same order, the values of `CC(=O)c1ccc(-c2cc(C(N)=O)c3ncnc(N[C@@H]4CNC[C@@H](F)C4)c3n2)s1` [Example 5, 6-(5-acetylthiophen-2-yl)-4-(((3S,5S)-5-fluoropiperidin-3-yl)amino)pyrido[3,2-d]pyrimidine-8-carboxamide] are below 500 nM and below 100 nM.
